PubChem BioAssay (NCI)
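Five compound concentrations were applied to cells in 96-well plates for 48 hours; endpoints were derived by simple linear interpolation of the resulting dose-response curve. At the TGI there is no net growth.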

How the values were obtained:
Experiment in all cases: inhibition of tumour cell growth, NCI panel, 48 h
786-0 renal = tested on: 786-0 renal
A549 NSCLC = tested on: A549 NSCLC
ACHN renal = tested on: ACHN renal
CAKI-1 renal = tested on: CAKI-1 renal
CCRF-CEM leukemia = tested on: CCRF-CEM leukemia
COLO 205 colon = tested on: COLO 205 colon
DLD-1 colon = tested on: DLD-1 colon
DMS 114 small cell lung = tested on: DMS 114 small cell lung
DMS 273 small cell lung = tested on: DMS 273 small cell lung
EKVX NSCLC = tested on: EKVX NSCLC
HCC-2998 colon = tested on: HCC-2998 colon
HCT-116 colon = tested on: HCT-116 colon
HCT-15 colon = tested on: HCT-15 colon
HL-60(TB) leukemia = tested on: HL-60(TB) leukemia
HOP-18 NSCLC = tested on: HOP-18 NSCLC
HOP-92 NSCLC = tested on: HOP-92 NSCLC
HT29 colon = tested on: HT29 colon
IGROV1 ovarian = tested on: IGROV1 ovarian
K-562 leukemia = tested on: K-562 leukemia
KM12 colon = tested on: KM12 colon
LOX IMVI melanoma = tested on: LOX IMVI melanoma
LXFL 529 NSCLC = tested on: LXFL 529 NSCLC
M14 melanoma = tested on: M14 melanoma
M19-MEL melanoma = tested on: M19-MEL melanoma
MALME-3M melanoma = tested on: MALME-3M melanoma
MOLT-4 leukemia = tested on: MOLT-4 leukemia
NCI-H226 lung = tested on: NCI-H226 lung
NCI-H23 lung = tested on: NCI-H23 lung
NCI-H460 lung = tested on: NCI-H460 lung
OVCAR-3 ovarian = tested on: OVCAR-3 ovarian
OVCAR-8 ovarian = tested on: OVCAR-8 ovarian
RPMI-8226 leukemia = tested on: RPMI-8226 leukemia
RXF 393 renal = tested on: RXF 393 renal
RXF-631 renal = tested on: RXF-631 renal
SF-295 CNS = tested on: SF-295 CNS
SF-539 CNS = tested on: SF-539 CNS
SK-MEL-28 melanoma = tested on: SK-MEL-28 melanoma
SK-MEL-5 melanoma = tested on: SK-MEL-5 melanoma
SK-OV-3 ovarian = tested on: SK-OV-3 ovarian
SN12C renal = tested on: SN12C renal
SNB-75 CNS = tested on: SNB-75 CNS
SNB-78 CNS = tested on: SNB-78 CNS
SW-620 colon = tested on: SW-620 colon
TK-10 renal = tested on: TK-10 renal
U251 CNS = tested on: U251 CNS
UACC-257 melanoma = tested on: UACC-257 melanoma
UACC-62 melanoma = tested on: UACC-62 melanoma
UO-31 renal = tested on: UO-31 renal
HOP-62 NSCLC = tested on: HOP-62 NSCLC
KM20L2 colon = tested on: KM20L2 colon
NCI-H522 lung = tested on: NCI-H522 lung
OVCAR-4 ovarian = tested on: OVCAR-4 ovarian
OVCAR-5 ovarian = tested on: OVCAR-5 ovarian
SF-268 CNS = tested on: SF-268 CNS
SK-MEL-2 melanoma = tested on: SK-MEL-2 melanoma
SNB-19 CNS = tested on: SNB-19 CNS
SR leukemia = tested on: SR leukemia
XF 498 CNS = tested on: XF 498 CNS

Compound: O=c1cccc(-c2cccc(=O)[nH]2)[nH]1
- TGI (786-0 renal): > 100 µM
- TGI (A549 NSCLC): > 100 µM
- TGI (ACHN renal): > 100 µM
- TGI (CAKI-1 renal): > 100 µM
- TGI (CCRF-CEM leukemia): > 100 µM
- TGI (COLO 205 colon): > 100 µM
- TGI (DLD-1 colon): > 100 µM
- TGI (DMS 114 small cell lung): > 100 µM
- TGI (DMS 273 small cell lung): > 100 µM
- TGI (EKVX NSCLC): > 100 µM
- TGI (HCC-2998 colon): > 100 µM
- TGI (HCT-116 colon): > 100 µM
- TGI (HCT-15 colon): > 100 µM
- TGI (HL-60(TB) leukemia): > 100 µM
- TGI (HOP-18 NSCLC): > 100 µM
- TGI (HOP-92 NSCLC): 96.5 µM
- TGI (HT29 colon): > 100 µM
- TGI (IGROV1 ovarian): > 100 µM
- TGI (K-562 leukemia): > 100 µM
- TGI (KM12 colon): > 100 µM
- TGI (LOX IMVI melanoma): > 100 µM
- TGI (LXFL 529 NSCLC): > 100 µM
- TGI (M14 melanoma): > 100 µM
- TGI (M19-MEL melanoma): > 100 µM
- TGI (MALME-3M melanoma): > 100 µM
- TGI (MOLT-4 leukemia): > 100 µM
- TGI (NCI-H226 lung): > 100 µM
- TGI (NCI-H23 lung): > 100 µM
- TGI (NCI-H460 lung): > 100 µM
- TGI (OVCAR-3 ovarian): > 100 µM
- TGI (OVCAR-8 ovarian): > 100 µM
- TGI (RPMI-8226 leukemia): > 100 µM
- TGI (RXF 393 renal): > 100 µM
- TGI (RXF-631 renal): > 100 µM
- TGI (SF-295 CNS): > 100 µM
- TGI (SF-539 CNS): > 100 µM
- TGI (SK-MEL-28 melanoma): > 100 µM
- TGI (SK-MEL-5 melanoma): > 100 µM
- TGI (SK-OV-3 ovarian): > 100 µM
- TGI (SN12C renal): > 100 µM
- TGI (SNB-75 CNS): > 100 µM
- TGI (SNB-78 CNS): > 100 µM
- TGI (SW-620 colon): > 100 µM
- TGI (TK-10 renal): > 100 µM
- TGI (U251 CNS): > 100 µM
- TGI (UACC-257 melanoma): > 100 µM
- TGI (UACC-62 melanoma): > 100 µM
- TGI (UO-31 renal): > 100 µM

Compound: Cn1cc(C(=O)c2ccccc2)cc(C(=O)c2ccccc2)c1=O
- TGI (786-0 renal): > 100 µM
- TGI (A549 NSCLC): > 100 µM
- TGI (ACHN renal): > 100 µM
- TGI (CAKI-1 renal): > 100 µM
- TGI (CCRF-CEM leukemia): > 100 µM
- TGI (COLO 205 colon): > 100 µM
- TGI (DLD-1 colon): > 100 µM
- TGI (DMS 114 small cell lung): > 100 µM
- TGI (DMS 273 small cell lung): > 100 µM
- TGI (EKVX NSCLC): > 100 µM
- TGI (HCC-2998 colon): > 100 µM
- TGI (HCT-15 colon): > 100 µM
- TGI (HL-60(TB) leukemia): > 100 µM
- TGI (HOP-62 NSCLC): > 100 µM
- TGI (HOP-92 NSCLC): > 100 µM
- TGI (HT29 colon): > 100 µM
- TGI (IGROV1 ovarian): > 100 µM
- TGI (K-562 leukemia): > 100 µM
- TGI (KM12 colon): > 100 µM
- TGI (KM20L2 colon): > 100 µM
- TGI (LOX IMVI melanoma): > 100 µM
- TGI (LXFL 529 NSCLC): > 100 µM
- TGI (M14 melanoma): > 100 µM
- TGI (M19-MEL melanoma): > 100 µM
- TGI (MALME-3M melanoma): > 100 µM
- TGI (MOLT-4 leukemia): > 100 µM
- TGI (NCI-H226 lung): > 100 µM
- TGI (NCI-H23 lung): > 100 µM
- TGI (NCI-H460 lung): > 100 µM
- TGI (NCI-H522 lung): > 100 µM
- TGI (OVCAR-3 ovarian): > 100 µM
- TGI (OVCAR-4 ovarian): > 100 µM
- TGI (OVCAR-5 ovarian): > 100 µM
- TGI (OVCAR-8 ovarian): > 100 µM
- TGI (RPMI-8226 leukemia): > 100 µM
- TGI (RXF 393 renal): > 100 µM
- TGI (RXF-631 renal): > 100 µM
- TGI (SF-268 CNS): > 100 µM
- TGI (SF-295 CNS): > 100 µM
- TGI (SF-539 CNS): > 100 µM
- TGI (SK-MEL-2 melanoma): > 100 µM
- TGI (SK-MEL-28 melanoma): > 100 µM
- TGI (SK-MEL-5 melanoma): > 100 µM
- TGI (SK-OV-3 ovarian): > 100 µM
- TGI (SN12C renal): > 100 µM
- TGI (SNB-19 CNS): > 100 µM
- TGI (SNB-75 CNS): > 100 µM
- TGI (SNB-78 CNS): > 100 µM
- TGI (SR leukemia): > 100 µM
- TGI (SW-620 colon): > 100 µM
- TGI (TK-10 renal): > 100 µM
- TGI (U251 CNS): > 100 µM
- TGI (UACC-257 melanoma): > 100 µM
- TGI (UACC-62 melanoma): > 100 µM
- TGI (UO-31 renal): > 100 µM
- TGI (XF 498 CNS): > 100 µM
